Measurements from PubChem BioAssay AID256 (DTP/NCI, 2004).
“And” between values parts separate entries of the source, which are not always exact repeats. Identical values can stand only once. Toxic doses and inconclusive results are not listed.

Test system: CD2F1 mice, L1210 leukemia ip, survival T/C
Assay: NCI In Vivo Anticancer Drug Screen. Data for tumor model L1210 Leukemia (intraperitoneal) in CD2F1 (CDF1) mice
Conditions: higher = longer survival
Summary of the method: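 Compound-dosed mice with transplantable tumor versus matched vehicle controls; endpoint ratio T/C reported.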

[1] = endpoint: mean survival time, dose: 100.0 mg/kg/injection, schedule: Q04DX002 (ip), vehicle: saline with Tween-80
[2] = endpoint: mean survival time, dose: 200.0 mg/kg/injection, schedule: Q04DX002 (ip), vehicle: saline with Tween-80

Compound: O=P1(NCCCl)OCCCN1CCCl (stereo not given)
- T/C (endpoint: mean survival time, dose: 25.0 mg/kg/injection, schedule: Q01DX001 (ip), vehicle: DMSO): 111 % of control
- T/C (endpoint: mean survival time, dose: 25.0 mg/kg/injection, schedule: Q01DX001 (ip), vehicle: saline): 102 % of control
- T/C (endpoint: mean survival time, dose: 50.0 mg/kg/injection, schedule: Q01DX001 (ip), vehicle: saline): 122 % of control
- T/C (endpoint: mean survival time, dose: 100.0 mg/kg/injection, schedule: Q01DX001 (ip), vehicle: DMSO): 153 % of control
- T/C (endpoint: mean survival time, dose: 200.0 mg/kg/injection, schedule: Q01DX001 (ip), vehicle: DMSO): 397 % of control
- T/C (endpoint: mean survival time, dose: 200.0 mg/kg/injection, schedule: Q01DX001 (ip), vehicle: saline): 170 % of control
- T/C (endpoint: mean survival time, dose: 400.0 mg/kg/injection, schedule: Q01DX001 (ip), vehicle: DMSO): 430 % of control
- T/C (endpoint: mean survival time, dose: 400.0 mg/kg/injection, schedule: Q01DX001 (ip), vehicle: clinical formulation): 416 % of control
- T/C (endpoint: mean survival time, dose: 400.0 mg/kg/injection, schedule: Q01DX001 (ip), vehicle: saline): 326 % of control and 685 % of control
- T/C (endpoint: mean survival time, dose: 600.0 mg/kg/injection, schedule: Q01DX001 (ip), vehicle: clinical formulation): 437 % of control
- T/C (endpoint: mean survival time, dose: 600.0 mg/kg/injection, schedule: Q01DX001 (ip), vehicle: saline): 451 % of control
- T/C (endpoint: median survival time, dose: 108.0 mg/kg/injection, schedule: Q01DX001 (ip), vehicle: water): 155 % of control and 157 % of control
- T/C (endpoint: median survival time, dose: 180.0 mg/kg/injection, schedule: Q01DX001 (ip), vehicle: water): 166 % of control and 173 % of control
- T/C (endpoint: median survival time, dose: 300.0 mg/kg/injection, schedule: Q01DX001 (ip), vehicle: saline): 315 % of control
- T/C (endpoint: median survival time, dose: 300.0 mg/kg/injection, schedule: Q01DX001 (ip), vehicle: water): 200 % of control and 215 % of control
- T/C (endpoint: median survival time, dose: 300.0 mg/kg/injection, schedule: Q01DX001 (iv), vehicle: saline): 223 % of control
- T/C (endpoint: median survival time, dose: 450.0 mg/kg/injection, schedule: Q01DX001 (ip), vehicle: saline): 616 % of control
- T/C (endpoint: median survival time, dose: 450.0 mg/kg/injection, schedule: Q01DX001 (iv), vehicle: saline): 616 % of control
- T/C (endpoint: median survival time, dose: 500.0 mg/kg/injection, schedule: Q01DX001 (ip), vehicle: water): 65 % of control

Compound: CCCCOC(=O)COc1ccc(F)cc1
- T/C [1]: 94 % of control
- T/C [2]: 94 % of control
- T/C (endpoint: mean survival time, dose: 400.0 mg/kg/injection, schedule: Q04DX002 (ip), vehicle: saline with Tween-80): 94 % of control

Compound: CCCCCCCCCCC(C(=O)OCC)P(=O)(OCC)OCC (stereo not given)
- T/C (endpoint: mean survival time, dose: 75.0 mg/kg/injection, schedule: Q01DX001 (ip), vehicle: saline): 98 % of control
- T/C (endpoint: mean survival time, dose: 150.0 mg/kg/injection, schedule: Q01DX001 (ip), vehicle: saline): 102 % of control
- T/C (endpoint: mean survival time, dose: 300.0 mg/kg/injection, schedule: Q01DX001 (ip), vehicle: saline): 96 % of control

Compound: CN1C=CC(C(C(N)=O)c2ccccc2)c2ccccc21 (stereo not given)
- T/C (endpoint: mean survival time, dose: 100.0 mg/kg/injection, schedule: Q04DX003 (ip), vehicle: saline with Tween-80): 96 % of control
- T/C (endpoint: mean survival time, dose: 200.0 mg/kg/injection, schedule: Q04DX003 (ip), vehicle: saline with Tween-80): 102 % of control
- T/C (endpoint: mean survival time, dose: 400.0 mg/kg/injection, schedule: Q04DX003 (ip), vehicle: saline with Tween-80): 97 % of control

Compound: Cn1ncc2c(N)nc(-c3ccccn3)nc21
- T/C (endpoint: mean survival time, dose: 12.5 mg/kg/injection, schedule: Q01DX005 (ip), vehicle: water): 97 % of control
- T/C (endpoint: mean survival time, dose: 25.0 mg/kg/injection, schedule: Q01DX005 (ip), vehicle: water): 94 % of control
- T/C (endpoint: mean survival time, dose: 50.0 mg/kg/injection, schedule: Q01DX005 (ip), vehicle: water): 91 % of control
- T/C (endpoint: mean survival time, dose: 100.0 mg/kg/injection, schedule: Q01DX005 (ip), vehicle: water): 94 % of control

Compound: COc1cc(NS(C)(=O)=O)ccc1Nc1c2ccccc2nc2cc(C(F)(F)F)c(N)cc12
- T/C (endpoint: mean survival time, dose: 200.0 mg/kg/injection, schedule: Q01DX001 (ip), vehicle: Klucel (hydroxypropylcellulose) (HPC)): 154 % of control
- T/C (endpoint: mean survival time, dose: 400.0 mg/kg/injection, schedule: Q01DX001 (ip), vehicle: Klucel (hydroxypropylcellulose) (HPC)): 265 % of control

Compound: CCC(C)C(=O)O[C@H]1C(=O)O[C@@H]2C[C@H]3C(C)=CC(=O)[C@@H](O)[C@]3(C)[C@H]3[C@@H](O)[C@H](O)[C@@]4(C)OC[C@]32[C@@H]14 (stereo not given in full)
- T/C (endpoint: mean survival time, dose: 2.0 mg/kg/injection, schedule: Q01DX009 (ip), vehicle: saline + alcohol): 104 % of control
- T/C (endpoint: mean survival time, dose: 4.0 mg/kg/injection, schedule: Q01DX009 (ip), vehicle: saline + alcohol): 102 % of control

Compound: O=S(=O)(CCCl)c1ccc(Cl)cc1
- T/C [1]: 96 % of control
- T/C [2]: 101 % of control

Compound: C1CN1c1nc(N2CC2)nc(N2CC2)n1
- T/C (endpoint: mean survival time, dose: 0.05 mg/kg/injection, schedule: Q01DX009 (ip), vehicle: saline): 100 % of control
- T/C (endpoint: mean survival time, dose: 0.06 mg/kg/injection, schedule: Q01DX009 (ip), vehicle: saline): 150 % of control
- T/C (endpoint: mean survival time, dose: 0.06 mg/kg/injection, schedule: Q03HX008 (ip), vehicle: saline): 100 % of control
- T/C (endpoint: mean survival time, dose: 0.06 mg/kg/injection, schedule: Q03HX016 (ip), vehicle: saline): 95 % of control and 97 % of control
- T/C (endpoint: mean survival time, dose: 0.06 mg/kg/injection, schedule: Q03HX024 (ip), vehicle: saline): 113 % of control
- T/C (endpoint: mean survival time, dose: 0.1 mg/kg/injection, schedule: Q01DX009 (ip), vehicle: saline): 107 % of control
- T/C (endpoint: mean survival time, dose: 0.12 mg/kg/injection, schedule: Q01DX009 (ip), vehicle: saline): 215 % of control and 100 % of control
- T/C (endpoint: mean survival time, dose: 0.13 mg/kg/injection, schedule: Q03HX008 (ip), vehicle: saline): 110 % of control
- T/C (endpoint: mean survival time, dose: 0.13 mg/kg/injection, schedule: Q03HX016 (ip), vehicle: saline): 104 % of control and 110 % of control
- T/C (endpoint: mean survival time, dose: 0.13 mg/kg/injection, schedule: Q03HX024 (ip), vehicle: saline): 124 % of control
- T/C (endpoint: mean survival time, dose: 0.2 mg/kg/injection, schedule: Q01DX009 (ip), vehicle: saline): 117 % of control
- T/C (endpoint: mean survival time, dose: 0.25 mg/kg/injection, schedule: Q01DX005 (ip), vehicle: saline): 117 % of control
- T/C (endpoint: mean survival time, dose: 0.25 mg/kg/injection, schedule: Q01DX009 (ip), vehicle: saline): 109 % of control
- T/C (endpoint: mean survival time, dose: 0.25 mg/kg/injection, schedule: Q03HX024 (ip), vehicle: saline): 174 % of control
- T/C (endpoint: mean survival time, dose: 0.4 mg/kg/injection, schedule: Q01DX009 (ip), vehicle: saline): 155 % of control
- T/C (endpoint: mean survival time, dose: 0.5 mg/kg/injection, schedule: Q01DX001 (ip), vehicle: saline): 114 % of control
- T/C (endpoint: mean survival time, dose: 0.5 mg/kg/injection, schedule: Q01DX005 (ip), vehicle: saline): 150 % of control
- T/C (endpoint: mean survival time, dose: 0.5 mg/kg/injection, schedule: Q01DX007 (ip), vehicle: saline): 183 % of control
- T/C (endpoint: mean survival time, dose: 0.5 mg/kg/injection, schedule: Q03HX008 (ip), vehicle: saline): 185 % of control
- T/C (endpoint: mean survival time, dose: 0.5 mg/kg/injection, schedule: Q03HX016 (ip), vehicle: saline): 183 % of control
- T/C (endpoint: mean survival time, dose: 0.5 mg/kg/injection, schedule: Q03HX024 (ip), vehicle: saline): 101 % of control
- T/C (endpoint: mean survival time, dose: 0.5 mg/kg/injection, schedule: Q08DX002 (ip), vehicle: saline): 107 % of control
- T/C (endpoint: mean survival time, dose: 0.5 mg/kg/injection, schedule: Q11DX002 (ip), vehicle: saline): 100 % of control
- T/C (endpoint: mean survival time, dose: 1.0 mg/kg/injection, schedule: Q01DX001 (ip), vehicle: saline): 190 % of control
- T/C (endpoint: mean survival time, dose: 1.0 mg/kg/injection, schedule: Q01DX005 (ip), vehicle: saline): 86 % of control
- T/C (endpoint: mean survival time, dose: 1.0 mg/kg/injection, schedule: Q01DX007 (ip), vehicle: saline): 92 % of control
- T/C (endpoint: mean survival time, dose: 1.0 mg/kg/injection, schedule: Q03DX003 (ip), vehicle: saline): 183 % of control
- T/C (endpoint: mean survival time, dose: 1.0 mg/kg/injection, schedule: Q08DX002 (ip), vehicle: saline): 204 % of control
- T/C (endpoint: mean survival time, dose: 1.0 mg/kg/injection, schedule: Q11DX002 (ip), vehicle: saline): 97 % of control
- T/C (endpoint: mean survival time, dose: 2.0 mg/kg/injection, schedule: Q01DX001 (ip), vehicle: saline): 154 % of control and 157 % of control
- T/C (endpoint: mean survival time, dose: 2.0 mg/kg/injection, schedule: Q03DX003 (ip), vehicle: saline): 211 % of control
- T/C (endpoint: mean survival time, dose: 2.0 mg/kg/injection, schedule: Q08DX002 (ip), vehicle: saline): 184 % of control
- T/C (endpoint: mean survival time, dose: 2.0 mg/kg/injection, schedule: Q11DX002 (ip), vehicle: saline): 100 % of control
- T/C (endpoint: mean survival time, dose: 3.0 mg/kg/injection, schedule: Q01DX001 (ip), vehicle: saline): 169 % of control and 338 % of control
- T/C (endpoint: mean survival time, dose: 4.0 mg/kg/injection, schedule: Q01DX001 (ip), vehicle: saline): 120 % of control
- T/C (endpoint: mean survival time, dose: 4.0 mg/kg/injection, schedule: Q08DX002 (ip), vehicle: saline): 102 % of control
- T/C (endpoint: mean survival time, dose: 4.0 mg/kg/injection, schedule: Q11DX002 (ip), vehicle: saline): 153 % of control
- T/C (endpoint: mean survival time, dose: 62.0 micrograms/kg/injection, schedule: Q01DX009 (ip), vehicle: saline): 123 % of control
- T/C (endpoint: mean survival time, dose: 125.0 micrograms/kg/injection, schedule: Q01DX009 (ip), vehicle: saline): 173 % of control
- T/C (endpoint: median survival time, dose: 0.25 mg/kg/injection, schedule: Q01DX009 (ip), vehicle: saline): 100 % of control
- T/C (endpoint: median survival time, dose: 0.5 mg/kg/injection, schedule: Q01DX009 (ip), vehicle: saline): 150 % of control and 185 % of control
- T/C (endpoint: median survival time, dose: 1.0 mg/kg/injection, schedule: Q01DX009 (ip), vehicle: saline): 121 % of control and 100 % of control
